According to patent US20240239813A1, “KRAS INHIBITORS AND PHARMACEUTICAL USES THEREOF” (RISEN (SUZHOU) PHARMA TECH CO., LTD., priority 2022, published 2024):

Experiments:
Assay type in all cases: cell-based
[1] = system: phosphorylation of p-ERK1/2 in MKN-1; assay: Cellular phospho-ERK inhibition, MKN-1; conditions: Homo sapiens; MKN-1, 4 hours
Description: (§1) The ability of exemplary test compounds to inhibit the phosphorylation of p-ERK1/2, which is the downstream effector of KRas in multiple human cancer cell lines such as AsPC-1 (Cobioer, CBP60546), GP2D (Cobioer, CBP60683), NCI-H358 (Cobioer, CBP60544), NCI-H727 (Cobioer, CBP60182), MKN-1 (Cobioer, CBP60486), HCT116 (ATCC, CCL-247), and HT-29 (Cobioer, CBP60011), was measured. Signal reflecting cell proliferation was detected with the Advanced phospho-ERK (Thr202/Tyr204) cellular kit (Cisbio, 64AERPEG).
(§2) Cells were cultured in the growth phase and 3×10^4 cells per well were plated in a 96-well plate (Corning, 3599). Cells were incubated 24 hours at 37° C. and 5% carbon dioxide in a humidity chamber. Serially diluted exemplary compounds were added to the cell plate which was then incubated for another 4 hours in a humid tray at 37° C. and 5% carbon dioxide. 1× Lysis buffer (Cisbio, 64AERPEG) was prepared at ambient temperature. Cell culture medium was removed, then lysis buffer (50 μL/well) was added to the cell plate and the plate was incubated at room temperature for 30 minutes on a shaker. […] The luminescent signal was measured on the VICTOR Nivo multimode plate reader according to the manufacturer's instructions. […]
(§3) IC50 was determined by fitting percent inhibition at each inhibitor concentration to the four-parameter nonlinear logistic equation using GraphPad Prism. […]

[2] = system: phosphorylation of p-ERK1/2 in GP2D; assay: Cellular phospho-ERK inhibition, GP2D; conditions: Homo sapiens, 4 hours
Description: as §1, §2, §3

[3] = system: phosphorylation of p-ERK1/2 in HT-29; assay: Cellular phospho-ERK inhibition, HT-29; conditions: Homo sapiens; HT-29, 4 hours
Description: as §1, §2, §3

[4] = system: phosphorylation of p-ERK1/2 in NCI-H727; assay: Cellular phospho-ERK inhibition, NCI-H727; conditions: Homo sapiens; NCI-H727, 4 hours
Description: as §1, §2, §3

[5] = system: phosphorylation of p-ERK1/2 in HCT-116; assay: Cellular phospho-ERK inhibition, HCT-116; conditions: Homo sapiens; HCT-116, 4 hours
Description: as §1, §2, §3

[6] = system: phosphorylation of p-ERK1/2 in AsPC-1; assay: Cellular phospho-ERK inhibition, AsPC-1; conditions: Homo sapiens, ASPC1; AsPC-1, 4 hours
Description: as §1, §2, §3

[7] = system: phosphorylation of p-ERK1/2 in NCI-H358; assay: Cellular phospho-ERK inhibition, NCI-H358; conditions: Homo sapiens; NCI-H358, 4 hours
Description: as §1, §2, §3

SMILES: CCc1c(F)ccc2cc(O)cc(-c3ncc4c(N5CCCC6(CCO6)C5)nc(OC[C@@]56CCCN5C[C@H](F)C6)nc4c3F)c12 (stereo partly shown) [Compound 25]
- IC50 [1]: 8.25 nM
- IC50 [2]: 3.36 nM
- IC50 [3]: > 1000 nM
- IC50 [4]: 110 nM
- IC50 [5]: 173 nM
- IC50 [6]: 17.4 nM
- IC50 [7]: 83.7 nM
